Test results published in ChEMBL document CHEMBL1201862, “PubChem BioAssay data set” (2004).
Values joined by “and” are separate entries in the source; they are usually repeats but may differ in a detail not shown here. Equal entries are not always repeated.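 Compound exposure: 48 hours, 5 concentrations, 96-well plates. At the GI50, growth is halved.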 Active and inactive are the calls of the source. Cut-off read from the data, not from the text of the source: active = GI50 up to about 1.1 µM and inactive = higher.

Key:
Assay in all cases: DTP human tumour cell line panel, 48 h
ACHN = test system: ACHN
NCI/ADR-RES = test system: NCI/ADR-RES
HCT-15 = test system: HCT-15
RPMI-8226 = test system: RPMI-8226
PC-3 = test system: PC-3
SR = test system: SR
OVCAR-3 = test system: OVCAR-3
OVCAR-8 = test system: OVCAR-8
A498 = test system: A498
T47D = test system: T47D
HL-60 = test system: HL-60
BT-549 = test system: BT-549
DU-145 = test system: DU-145
MDA-MB-231 = test system: MDA-MB-231
K562 = test system: K562
Malme-3M = test system: Malme-3M
NCI-H460 = test system: NCI-H460
NCI-H522 = test system: NCI-H522
Hs-578T = test system: Hs-578T

Structure (SMILES)	GI50 (ACHN)	GI50 (NCI/ADR-RES)	GI50 (HCT-15)	GI50 (RPMI-8226)	GI50 (PC-3)	GI50 (SR)	GI50 (OVCAR-3)	GI50 (OVCAR-8)	GI50 (A498)	GI50 (T47D)	GI50 (HL-60)	GI50 (BT-549)	GI50 (DU-145)	GI50 (MDA-MB-231)	GI50 (K562)	GI50 (Malme-3M)	GI50 (NCI-H460)	GI50 (NCI-H522)	GI50 (Hs-578T)
N#CC(C/C=C/c1ccccc1)NNC(=O)c1c(Cl)c(Cl)c(Cl)c(Cl)c1-c1nc2cc(C(=O)c3ccccc3)ccc2[nH]1 (configuration not stated)	25.9 µM (inactive)	12.9 µM (inactive)	11.6 µM	16.3 µM (inactive)	10.9 µM (inactive)	6.58 µM (inactive)	7.53 µM (inactive)	16.7 µM (inactive)	9.23 µM (inactive)	12 µM (inactive)	7.57 µM (inactive)	20.7 µM (inactive)	18.5 µM (inactive)	16.1 µM (inactive)	6.34 µM (inactive)				
CC(C)[C@H]1C(=O)O[B@-](F)(c2ccccc2)/[N+]1=C\N(C)C	> 100 µM (inactive)	> 100 µM (inactive)	> 100 µM	> 100 µM (inactive)	> 100 µM (inactive)	> 100 µM (inactive)	> 100 µM (inactive)	> 100 µM (inactive)		> 100 µM (inactive)	> 100 µM (inactive)	> 100 µM (inactive)	> 100 µM (inactive)	> 100 µM (inactive)	> 100 µM (inactive)	> 100 µM (inactive)	> 100 µM (inactive)		
CCOC(=O)C(=CN1CCNC1=S)C(=O)OCC	> 100 µM (inactive)	> 100 µM (inactive)	> 100 µM	> 100 µM (inactive)	> 100 µM (inactive)	> 100 µM (inactive)	0.288 µM (active)	> 100 µM (inactive)	18.2 µM (inactive)	> 100 µM (inactive)	> 100 µM (inactive)	> 100 µM (inactive)	> 100 µM (inactive)	> 100 µM (inactive)	> 100 µM (inactive)	> 100 µM (inactive)	> 100 µM (inactive)	62.7 µM (inactive)	
COCC1OC([P+](c2ccccc2)(c2ccccc2)c2ccccc2)CC(OC)C1OC (configuration not stated)	74.6 µM (inactive)	> 100 µM (inactive)	> 100 µM		30.5 µM (inactive)	17.4 µM (inactive)	22.7 µM (inactive)	28.8 µM (inactive)	37.2 µM (inactive)	20.6 µM (inactive)			32.2 µM (inactive)	44.3 µM (inactive)	34.2 µM (inactive)	33.9 µM (inactive)			28.2 µM (inactive)
CC1CC(N)=Nc2ccccc2N1Cc1ccccc1 (configuration not stated)	15.2 µM (inactive)	15.1 µM (inactive)	15.8 µM	5 µM (inactive)	14.2 µM (inactive)		12.4 µM (inactive)	14.6 µM (inactive)	11.2 µM (inactive)		3.96 µM (inactive)	13.3 µM (inactive)	16.6 µM (inactive)	14.4 µM (inactive)	4.98 µM (inactive)	2.22 µM (inactive)	13.9 µM (inactive)	12.7 µM (inactive)	11.1 µM (inactive)
CC1(C)CC(=O)C(=CNc2nc(-c3ccc(Br)cc3)cs2)C(=O)C1	37 µM (inactive)	37.8 µM (inactive)	21.2 µM		26.8 µM (inactive)		22.3 µM (inactive)	51.1 µM (inactive)		32.9 µM (inactive)	27.7 µM (inactive)	17.7 µM (inactive)	43.9 µM (inactive)	31.8 µM (inactive)			31.1 µM (inactive)		
CC1N(O)C(c2ccccc2)C(c2ccccc2)=[N+]1[O-] (configuration not stated)	> 100 µM (inactive)	> 100 µM (inactive)	> 100 µM		> 100 µM (inactive)	> 100 µM (inactive)	> 100 µM (inactive)	> 100 µM (inactive)	> 100 µM (inactive)		> 100 µM (inactive)	> 100 µM (inactive)		> 100 µM (inactive)	> 100 µM (inactive)	> 100 µM (inactive)	> 100 µM (inactive)		> 100 µM (inactive)
N#C/C(C(=S)Nc1ccccc1)=C(/N)N1CCCC1	> 100 µM (inactive)	> 100 µM (inactive)	> 100 µM	> 100 µM (inactive)	> 100 µM (inactive)	> 100 µM (inactive)	> 100 µM (inactive)	> 100 µM (inactive)	> 100 µM (inactive)		> 100 µM (inactive)		> 100 µM (inactive)	> 100 µM (inactive)	> 100 µM (inactive)	> 100 µM (inactive)	> 100 µM (inactive)	> 100 µM (inactive)	> 100 µM (inactive)
O=S(=O)(c1ccc(-c2nnc(-c3ccc(F)cc3)o2)cc1)c1ccc(-c2nnc(-c3ccc(F)cc3)o2)cc1	14.7 µM (inactive)	> 100 µM (inactive)	> 100 µM	> 100 µM (inactive)	> 100 µM (inactive)		> 100 µM (inactive)	> 100 µM (inactive)	25.5 µM (inactive)	> 100 µM (inactive)	> 100 µM (inactive)	91 µM (inactive)	> 100 µM (inactive)		> 100 µM (inactive)	> 100 µM (inactive)	> 100 µM (inactive)	> 100 µM (inactive)	
CC1=C2CN(C(=O)OCC(C)C)CCC2C2=C(C(=O)c3ccccc3C2=O)C1C (configuration not stated)			> 10 µM	> 10 µM (inactive)	> 10 µM (inactive)	> 10 µM (inactive)		> 10 µM (inactive)		> 10 µM (inactive)	> 10 µM (inactive)		> 10 µM (inactive)	> 10 µM (inactive)	> 10 µM (inactive)	> 10 µM (inactive)			
O=C(Nc1ccc(Cl)cc1)c1cc2c(cc1Cl)Sc1nccn1S2(=O)=O	75.5 µM (inactive)	56.5 µM (inactive)	35.7 µM		85.3 µM (inactive)	> 100 µM (inactive)	46.5 µM (inactive)	51.3 µM (inactive)	29.6 µM (inactive)	> 100 µM (inactive)			> 100 µM (inactive)	43.7 µM (inactive)	14.1 µM (inactive)	77.8 µM (inactive)	42.5 µM (inactive)	57.1 µM (inactive)	33.8 µM (inactive)
COc1c(-c2ccccc2)oc2c(CP(=O)(OC)OC)cccc2c1=O				14.6 µM (inactive)	> 100 µM (inactive)	> 100 µM (inactive)	> 100 µM (inactive)		> 100 µM (inactive)	> 100 µM (inactive)		41.1 µM (inactive)	> 100 µM (inactive)	> 100 µM (inactive)	> 100 µM (inactive)	> 100 µM (inactive)		> 100 µM (inactive)	
COc1ccc2c(c1)O[C@@H]1c3ccc(OC)cc3OC[C@H]21	52.4 µM (inactive)		25.8 µM	26.9 µM (inactive)		22.9 µM (inactive)	34 µM (inactive)	42.1 µM (inactive)			19.3 µM (inactive)				6.11 µM (inactive)	39.2 µM (inactive)	26.2 µM (inactive)	15.3 µM (inactive)	
Cc1cc(C)c(C(=O)C(C)C(c2ccccc2)c2ccc(Cl)cc2)c(C)c1 (configuration not stated)	> 100 µM (inactive) and 91.8 µM (inactive)		> 100 µM and 51.5 µM			76.2 µM (inactive) and 64.6 µM (inactive)	> 100 µM (inactive)	> 100 µM (inactive)							50.5 µM (inactive) and 48.8 µM (inactive)		> 100 µM (inactive)		
